Measurements taken from patent publication US11052157B2 (priority 2014, dated 2021).
Counter-ions that a name gives are not always drawn.

Assays:
[1] = test system: intact, bacterially derived minicells; assay: Flow cytometry of dye-packaged minicells (FL1 channel); design: species or system Salmonella enterica serovar Typhimurium; details: BacLight Green 200 nM, 30 minutes, room temperature
Method: (§1) Minicells packaged with BacLight™ Green were analyzed by flow cytometry (Beckman Coulter FC500). Empty minicells and BacLight™ Green-packaged minicells were labeled with an anti-LPS alexa fluor 647 (AF647) antibody. Firstly, the minicells were analyzed using the FL4 channel to detect anti-LPS AF647-stained minicells. The minicell population was visualized in a dot plot using FL4 fluorescence versus forward scatter, and the population was gated to select anti-LPS AF647 stained minicells only, disregarding any debris.
The gated population was analyzed on the FL1 channel, to detect BacLight™ Green fluorescence.
as §1, with “loaded” for “packaged”, “SYTO 9®” for “BacLight™ Green”, “SYTO® 9-stained” for “BacLight™ Green-packaged”, “plot,” for “plot”, “AF647-stained” for “AF647 stained”, “debris. The gated population then was analyzed on the FL1 channel, to detect SYTO 9 fluorescence.” for “debris.”

[2] = cited from earlier work
[3] = Fluorescence readings of doxorubicin loading solutions with folic acid (plate reader); format: physicochemical; details: for % Fluorescence Em λ590 nm / % Fluorescence Em λ620 nm: excitation 485 nm
Method: The solutions were incubated at room temperature overnight and then were filtered through a 0.1 μm filter, to sterilize the solutions and to remove any particulates.
On the following day the fluorescence of an aliquot of each solution was measured with a fluorescence plate reader (excitation wavelength: 485 nm, emission wavelengths: 590 nm and 620 nm). Concomitantly, minicells were washed with PBS buffer and then were loaded with one or another of each of the Dox+FA solutions, previously prepared at a density of 2.5×10^10 minicells/ml, in a volume between about 1 ml to 2 mls. Samples (500 μl) were taken from each of the treatment groups at the time points of 30 minutes, 1 hour, 2 hours, 4 hours, 6 hours, and overnight.

[4] = test system: MDA-MB-468 human breast cancer cells; assay: Incubation of non-targeted doxorubicin-loaded minicells (small-scale protocol) with cancer cells, confocal microscopy; format: cell-based; details: 1×10^8 non-targeted doxorubicin-loaded minicells (small-scale protocol), 10^4 cells per well; within two days
Method: Upon overnight incubation with the drug (about 1 ml/mg) at 37° C. with rotation, the loaded minicells were subjected five times to a washing step that entailed centrifugation (13,200 rpm, 10 minutes) and resuspension of the resultant pellet in 1 ml BSG buffer (pH 7.4).
The washed, doxorubicin-loaded minicells (1×10^8) then were incubated with estrogen receptor-negative MDA-MB-468 human breast cancer cells (10^4 cells per well) in Gibco RPMI-1640 tissue culture medium (in 0.5 ml per well) supplemented with 10% Fetal Bovine Serum, 2 mM L-glutamine, and 100 U/ml of both penicillin G and streptomycin.
The cells were monitored subsequently every 24 hours via confocal microscopy.

CN1C(=CC=Cc2n(Cc3ccc(CCl)cc3)c3cc(Cl)c(Cl)cc3[n+]2Cc2ccc(CCl)cc2)Oc2ccccc21.[Cl-] [BacLight™ Green]
minicells that are fluorescent [1]: greater than 95%

O=C1c2c(O)ccc(O)c2C(=O)c2c(NCCNCCO)ccc(NCCNCCO)c21 [MTX, mitoxantrone dihydrochloride]
solubility in water [2]: 5000 to 7500 µg/mL

doxorubicin
% Fluorescence Em λ590 nm ([3]; 0 μg/ml FA, Dox 100 pg/ml in PBS): 100%
% Fluorescence Em λ620 nm ([3]; 0 μg/ml FA): 100%
% Fluorescence Em λ590 nm ([3]; 50 μg/ml FA): 93%
% Fluorescence Em λ620 nm ([3]; 50 μg/ml FA): 94%
doxorubicin emission fluorescence lost ([3]; 50 μg/ml folic acid): 6-7%
% Fluorescence Em λ590 nm ([3]; 400 μg/ml FA): 61%
% Fluorescence Em λ620 nm ([3]; 400 μg/ml FA): 59%
doxorubicin fluorescence emission signal lost ([3]; 400 μg/ml of folic acid): ~40%
doxorubicin entry into cancer cells (confocal microscopy) [4]: red fluorescence in their nuclei
